Experiments:
[1] = system: Serotonin 5-HT1, non-selective; test: Radioligand binding assay, 3H Serotonin (5-HT) Trifluoroacetate; design: species or system Wistar rat; details: 10 μM; significance criteria ≧50% of max stimulation or inhibition
Protocol: (§1) In order to test the selectivity of compounds, various enzyme assays as well as radioligand binding assays were performed using numerous non-Edg receptor targets as listed below.
(§2) A radioligand binding assay was performed using adrenergic α1 according to the method of Greengrass and Bremner 1979, Eur. J. Pharmacol. 55:323–326. A radioligand binding assay was performed using adrenergic α2 according to the method of Boyajian and Leslie, 1987, J. Pharmacol. Exp. Ther. 241:1092–1098. A radioligand binding assay was performed using adrenergic β according to the method of Feve et al., 1994, Proc. Natl. Acad. Sci. USA 91:5677–5681. A radioligand binding assay was performed using angiotensin AT2 according to the method of Whitebread et al., 1991, Biochem. Biophys. Res. Comm. 181:1365–1371. A radioligand binding assay was performed using calcium channel Type L, dihydropyridine according to the method of Ehlert et al., 1982, Life Sci. 30:2191–2202. A radioligand binding assay was performed using dopamine D2L according to the method of Bunzo et al., 1988, Nature 336:783–787. A radioligand binding assay was performed using endothelin ETA according to the method of Mihara et al., 1994, J. Phrmacol. Exp Ther. 268:1122–1127. A radioligand binding assay was performed using histamine H1 Central according to the method of Hill et al., 1978, J. Neurochem. 31:997–1004. […]
(§3) Quantitation Method: Radioligand Binding […]

Edg-6 = target: T1, Edg-6 (Homo sapiens, UniProt O95977); test: Intracellular calcium assay, S1P-stimulated, HTC cells expressing Edg-6; format: cell-based; details: concentrations as high as 20 µM
T1 construct: expressed in transfected cells; host or cells: HTC rat hepatoma cells
T1 sequence (O95977 1-384): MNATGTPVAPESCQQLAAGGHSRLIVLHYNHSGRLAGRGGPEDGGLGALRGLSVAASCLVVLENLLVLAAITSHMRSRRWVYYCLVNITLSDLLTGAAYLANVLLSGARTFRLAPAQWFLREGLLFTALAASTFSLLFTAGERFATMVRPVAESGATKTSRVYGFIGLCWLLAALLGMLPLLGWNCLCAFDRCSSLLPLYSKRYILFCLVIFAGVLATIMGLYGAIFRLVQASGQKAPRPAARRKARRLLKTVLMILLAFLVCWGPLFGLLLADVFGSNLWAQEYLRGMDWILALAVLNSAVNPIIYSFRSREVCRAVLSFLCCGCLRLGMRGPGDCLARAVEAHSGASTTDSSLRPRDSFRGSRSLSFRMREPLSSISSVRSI

[2] = system: Muscarinic non-selective, Central; test: Radioligand binding assay, 3H Quinuclidinyl benzilate; design: species or system Wistar rat; details: 10 μM; significance criteria ≧50% of max stimulation or inhibition
Protocol: as §1, §2, §3

Endothelin ETA = target: T2, Endothelin ETA (Homo sapiens, UniProt P25101); test: Radioligand binding assay, 125I Endothelin; details: 10 μM; significance criteria ≧50% of max stimulation or inhibition
T2 construct: expressed in transfected cells; host or cells: CHO cells
T2 sequence (P25101 21-427): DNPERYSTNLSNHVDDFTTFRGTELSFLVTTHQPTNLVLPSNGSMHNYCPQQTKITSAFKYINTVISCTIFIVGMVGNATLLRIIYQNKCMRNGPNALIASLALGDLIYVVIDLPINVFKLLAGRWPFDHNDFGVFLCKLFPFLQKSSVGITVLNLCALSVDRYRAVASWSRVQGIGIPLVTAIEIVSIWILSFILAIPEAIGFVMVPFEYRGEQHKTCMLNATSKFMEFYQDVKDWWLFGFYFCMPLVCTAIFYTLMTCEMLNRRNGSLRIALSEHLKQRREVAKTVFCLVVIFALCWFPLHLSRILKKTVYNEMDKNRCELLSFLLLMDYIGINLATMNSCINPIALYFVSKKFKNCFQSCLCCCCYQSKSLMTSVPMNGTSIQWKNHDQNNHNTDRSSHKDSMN
Protocol: as §1, §2, §3

Angiotensin AT2 = target: T3, Angiotensin AT2 (Homo sapiens, UniProt P50052); test: Radioligand binding assay, 125I CGP-42112A; details: 10 μM; significance criteria ≧50% of max stimulation or inhibition
T3 construct: expressed in transfected cells; host or cells: HeLa cells
T3 sequence (P50052 1-363): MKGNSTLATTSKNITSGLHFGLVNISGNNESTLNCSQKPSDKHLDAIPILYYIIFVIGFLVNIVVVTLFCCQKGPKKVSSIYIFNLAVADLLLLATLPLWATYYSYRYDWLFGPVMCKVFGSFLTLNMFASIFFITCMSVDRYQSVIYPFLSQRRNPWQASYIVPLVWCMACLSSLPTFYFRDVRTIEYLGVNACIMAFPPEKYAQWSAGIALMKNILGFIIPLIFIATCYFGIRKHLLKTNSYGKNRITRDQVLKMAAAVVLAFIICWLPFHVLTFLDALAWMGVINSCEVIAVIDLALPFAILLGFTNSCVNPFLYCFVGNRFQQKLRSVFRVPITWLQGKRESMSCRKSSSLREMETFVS
Protocol: as §1, §2, §3

Cc1c(-c2ccccc2)nc2ccccc2c1C(=O)NCc1ccc(F)cc1 [Compound 101, 3-methyl-2-phenyl-quinoline-4-carboxylic acid 4-fluoro-benzylamide]
activity in standard binding assay, Serotonin 5-HT1, non-selective [1]: no activity | inhibition of S1P-stimulated calcium increases, Edg-6 (Edg-6): did not inhibit | activity in standard binding assay, Muscarinic non-selective, Central [2]: no activity | activity in standard binding assay, Endothelin ETA (Endothelin ETA): no activity | activity in standard binding assay, Angiotensin AT2 (Angiotensin AT2): no activity

— patent US7208502B2, “Methods of treating conditions associated with an Edg-3 receptor” (Maniv Energy Capital, priority 2002, dated 2007)
